Reference: the supplement of paper PMC10307832

Legend:
Test in all cases: relative viability (nuclei count vs DMSO), 5 days (fraction); higher = more cells survive
[1] = tested on: NCI-H2085
Procedure, shortened: (§1)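 Relative viability was taken as the ratio of nuclei in treated wells to nuclei in vehicle wells. Lung cancer cell lines in 1536-well plates received compounds by pin tool one day after seeding, either one drug alone or a fixed anchor-drug dose plus five library-drug doses (not always all listed) in √10 steps. Nuclei were counted on 4× images after 5 days of treatment, and values are medians of duplicate plates.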

[2] = tested on: NCI-H1648
Procedure, shortened: as §1

[3] = tested on: NCI-H3122
Procedure, shortened: as §1

[4] = tested on: HCC-44
Procedure, shortened: as §1

[5] = tested on: HCC-366
Procedure, shortened: as §1

[6] = tested on: LOU-NH91
Procedure, shortened: as §1

[7] = tested on: LXF-289
Procedure, shortened: as §1

[8] = tested on: NCI-H1623
Procedure, shortened: as §1

[9] = tested on: NCI-H1437
Procedure, shortened: as §1

`COc1cc2nccc(Oc3ccc(NC(=O)Nc4cc(C)on4)c(Cl)c3)c2cc1OC` [Tivozanib] + COc1cccc2cc(-c3nc([C@H]4CC[C@H](C(=O)O)CC4)n4ncnc(N)c34)[nH]c12 [OSI-027] (partner 0.5 µM) gave a relative viability ([1]; first compound 0.005 µM) of 0.757, a relative viability ([1]; first compound 0.01581 µM) of 0.66 and a relative viability ([1]; first compound 0.05 µM) of 0.817. It also gave a relative viability ([1]; first compound 0.1581 µM) of 0.382, a relative viability ([1]; first compound 0.5 µM) of 0.528 and a relative viability ([2]; first compound 0.005 µM) of 0.255. The relative viability ([2]; first compound 0.01581 µM) was 0.25, the relative viability ([2]; first compound 0.05 µM) was 0.221 and the relative viability ([2]; first compound 0.1581 µM) was 0.218. It also gave a relative viability ([2]; first compound 0.5 µM) of 0.258, a relative viability ([3]; first compound 0.005 µM) of 0.971 and a relative viability ([3]; first compound 0.01581 µM) of 0.98. For the same compound, the relative viability ([3]; first compound 0.05 µM) was 1.05, the relative viability ([3]; first compound 0.1581 µM) was 0.859 and the relative viability ([3]; first compound 0.5 µM) was 0.925. For the same compound, the relative viability ([4]; first compound 0.005 µM) was 0.483, the relative viability ([4]; first compound 0.01581 µM) was 0.544 and the relative viability ([4]; first compound 0.05 µM) was 0.485. The relative viability ([4]; first compound 0.1581 µM) was 0.41, the relative viability ([4]; first compound 0.5 µM) was 0.464 and the relative viability ([5]; first compound 0.005 µM) was 0.839. It also gave a relative viability ([5]; first compound 0.01581 µM) of 0.849, a relative viability ([5]; first compound 0.05 µM) of 1.02 and a relative viability ([5]; first compound 0.1581 µM) of 0.707. It also gave a relative viability ([5]; first compound 0.5 µM) of 0.57, a relative viability ([6]; first compound 0.005 µM) of 0.695 and a relative viability ([6]; first compound 0.01581 µM) of 0.807. The relative viability ([6]; first compound 0.05 µM) was 0.762, the relative viability ([6]; first compound 0.1581 µM) was 0.61 and the relative viability ([6]; first compound 0.5 µM) was 0.729. For the same compound, the relative viability ([7]; first compound 0.005 µM) was 0.812, the relative viability ([7]; first compound 0.01581 µM) was 0.786 and the relative viability ([7]; first compound 0.05 µM) was 0.845. For the same compound, the relative viability ([7]; first compound 0.1581 µM) was 0.638, the relative viability ([7]; first compound 0.5 µM) was 0.618 and the relative viability ([8]; first compound 0.005 µM) was 0.414. For the same compound, the relative viability ([8]; first compound 0.01581 µM) was 0.445, the relative viability ([8]; first compound 0.05 µM) was 0.431 and the relative viability ([8]; first compound 0.1581 µM) was 0.407. For the same compound, the relative viability ([8]; first compound 0.5 µM) was 0.459, the relative viability ([9]; first compound 0.005 µM) was 0.887 and the relative viability ([9]; first compound 0.01581 µM) was 0.843. It also gave a relative viability ([9]; first compound 0.05 µM) of 0.946, a relative viability ([9]; first compound 0.1581 µM) of 0.661 and a relative viability ([9]; first compound 0.5 µM) of 0.837.

For `COc1cc2nccc(Oc3ccc(NC(=O)Nc4cc(C)on4)c(Cl)c3)c2cc1OC` [Tivozanib] + Cc1cc(Nc2cc(N3CCN(C)CC3)nc(Sc3ccc(NC(=O)C4CC4)cc3)n2)n[nH]1 [Tozasertib] (partner 0.1 µM), the relative viability ([1]; first compound 0.005 µM) was 0.806, the relative viability ([1]; first compound 0.01581 µM) was 0.699 and the relative viability ([1]; first compound 0.05 µM) was 0.905. It also gave a relative viability ([1]; first compound 0.1581 µM) of 0.985, a relative viability ([1]; first compound 0.5 µM) of 0.812 and a relative viability ([2]; first compound 0.005 µM) of 0.482. It also gave a relative viability ([2]; first compound 0.01581 µM) of 0.534, a relative viability ([2]; first compound 0.05 µM) of 0.436 and a relative viability ([2]; first compound 0.1581 µM) of 0.536. For the same compound, the relative viability ([2]; first compound 0.5 µM) was 0.545, the relative viability ([3]; first compound 0.005 µM) was 0.418 and the relative viability ([3]; first compound 0.01581 µM) was 0.428. The relative viability ([3]; first compound 0.05 µM) was 0.468, the relative viability ([3]; first compound 0.1581 µM) was 0.586 and the relative viability ([3]; first compound 0.5 µM) was 0.253. For the same compound, the relative viability ([4]; first compound 0.005 µM) was 0.889, the relative viability ([4]; first compound 0.01581 µM) was 0.9 and the relative viability ([4]; first compound 0.05 µM) was 0.839. The relative viability ([4]; first compound 0.1581 µM) was 1.04, the relative viability ([4]; first compound 0.5 µM) was 0.773 and the relative viability ([5]; first compound 0.005 µM) was 0.094. It also gave a relative viability ([5]; first compound 0.01581 µM) of 0.115, a relative viability ([5]; first compound 0.05 µM) of 0.156 and a relative viability ([5]; first compound 0.1581 µM) of 0.137. The relative viability ([5]; first compound 0.5 µM) was 0.111, the relative viability ([6]; first compound 0.005 µM) was 0.644 and the relative viability ([6]; first compound 0.01581 µM) was 0.669. It also gave a relative viability ([6]; first compound 0.05 µM) of 0.775, a relative viability ([6]; first compound 0.1581 µM) of 0.759 and a relative viability ([6]; first compound 0.5 µM) of 0.659. It also gave a relative viability ([7]; first compound 0.005 µM) of 0.173, a relative viability ([7]; first compound 0.01581 µM) of 0.201 and a relative viability ([7]; first compound 0.05 µM) of 0.228. It also gave a relative viability ([7]; first compound 0.1581 µM) of 0.272, a relative viability ([7]; first compound 0.5 µM) of 0.23 and a relative viability ([8]; first compound 0.005 µM) of 0.42. The relative viability ([8]; first compound 0.01581 µM) was 0.467, the relative viability ([8]; first compound 0.05 µM) was 0.47 and the relative viability ([8]; first compound 0.5 µM) was 0.424. It also gave a relative viability ([9]; first compound 0.005 µM) of 0.405, a relative viability ([9]; first compound 0.01581 µM) of 0.343 and a relative viability ([9]; first compound 0.05 µM) of 0.53. It also gave a relative viability ([9]; first compound 0.1581 µM) of 0.44 and a relative viability ([9]; first compound 0.5 µM) of 0.436.
